{"source": "patent US8025894B2", "about": "“Innovative formulation” (Endura S.p.A., priority 2005, dated 2011)", "system": "Bemisia tabaci (whitefly) biotype B", "experiment": "Mortality assay (leaf dip bioassay)", "assay_type": "in vivo", "details": "adult insects on treated cotton leaf discs, mortality evaluated at 24 and 48 hours", "procedure": "The “leaf dip bioassay” used for testing the activity of insecticides against Bemisia tabaci (whitefly) biotype B, was similar to that described by Cahill, M et al, Bull. Entomol. Res. 85, 181-187, 1995.\nCotton plants (Gossypium hirsutum L.) were grown without any exposure to the insecticides. The leaves were cut up into disc shapes and immersed in an aqueous solution of insecticide containing 0.01% of Agral then left to dry at 25° C.\nControl leaves were immersed in Agral and distilled water only.\nAbout 20 adult insects were placed onto the small discs of treated cotton leaf.\nThe insects were allowed to feed and maximum mortality was evaluated at 24 and 48 hours.\nLC50% a.i. (=active ingredient) and LC99% a.i. indicate the quantity of insecticide able to achieve mortality for 50% and 99% of the insects tested.\nAs a comparison, the data obtained with commercial bifenthrin in the absence of the synergistic compound (PBO) and the data obtained with commercial bifenthrin in a mixture with the same quantity of PBO present in the formulation product of example 1 are given in the same table."}
{"compound": "Cc1c(COC(=O)[C@@H]2[C@H](/C=C(\\Cl)C(F)(F)F)C2(C)C)cccc1-c1ccccc1", "note": "(racemic) [Bifenthrin]", "values": [{"measurement": "LC50% a.i.", "setting": "quantity of insecticide giving 50% mortality", "result": 0.01, "unit": "ppm"}, {"measurement": "LC99% a.i.", "setting": "quantity of insecticide giving 99% mortality", "result": 257, "unit": "ppm"}]}
